Data: patent publication US20250360210A1, “IMMUNOEFFECTOR CELLS DERIVED FROM INDUCED PLURIPOTENT STEM CELLS GENETICALLY ENGINEERED WITH MEMBRANE BOUND IL12 AND USES THEREOF” (Century Therapeutics, Inc., priority 2022, published 2025)

Target: T1, ADAM17 (Homo sapiens, UniProt P78536)
T1 construct: endogenous in cells; host or cells: iPSCs engineered with p1514 (ADAM17-cleavable membrane-tethered IL12 transgene at the AAVS1 locus)
Test: Flow cytometry for IL12 on the surface of p1514-engineered iPSCs after incubation with TAPI-1
Assay type: cell-based
Settings: concentrations lower than 50 uM
Method: To confirm expression in cells engineered with the ADAM17 cleavable membrane tethered IL12 (p1514; FIG. 1B), the iPSCs were incubated with different concentrations of the ADAM17 inhibitor TAPI-1 and then analyzed by flow cytometry for IL12 detection on the surface of the engineered iPSCs.
Lower concentrations had no effect on cell health or tmIL12 detection)

T1 sequence (P78536 215-824): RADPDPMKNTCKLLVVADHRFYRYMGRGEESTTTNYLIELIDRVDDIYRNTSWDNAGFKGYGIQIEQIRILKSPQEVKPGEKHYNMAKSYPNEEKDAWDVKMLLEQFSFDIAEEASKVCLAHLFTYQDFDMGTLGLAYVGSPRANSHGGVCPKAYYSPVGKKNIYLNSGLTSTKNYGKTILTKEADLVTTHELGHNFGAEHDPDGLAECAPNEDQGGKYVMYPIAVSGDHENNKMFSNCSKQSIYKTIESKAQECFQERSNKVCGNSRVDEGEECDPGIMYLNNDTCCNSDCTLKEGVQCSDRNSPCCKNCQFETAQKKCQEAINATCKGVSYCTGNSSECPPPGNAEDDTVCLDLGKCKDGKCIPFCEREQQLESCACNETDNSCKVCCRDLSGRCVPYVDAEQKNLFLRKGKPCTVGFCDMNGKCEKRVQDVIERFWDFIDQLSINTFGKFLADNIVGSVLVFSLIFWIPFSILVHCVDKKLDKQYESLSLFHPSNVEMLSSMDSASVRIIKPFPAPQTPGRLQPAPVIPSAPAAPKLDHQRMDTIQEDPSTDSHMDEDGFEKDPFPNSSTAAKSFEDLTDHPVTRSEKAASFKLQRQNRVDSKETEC

tmIL12 detection on surface of engineered iPSCs: no effect | cell health (engineered iPSCs): no effect
SMILES: CC(C)C[C@H](CC(=O)NO)C(=O)N[C@@H](Cc1ccc2ccccc2c1)C(=O)N[C@@H](C)C(=O)NCCN [TAPI-1]
